Laboratory results: patent US20040248275A1, “Engineered bacterial aggregates” (priority 2003, published 2004)

Key:
Format in all cases: cell-based
A. hydrophila = assay: QUAT susceptibility in structured multi-species aggregates (survivors); details: 1 mM QUAT
Experimental: (§1) In another method of the present invention, one would form a multilamellar spherical aggregate in the following manner: In order to construct lamellar aggregates, aggregates of defined size should be prepared for the ‘core’ under XS (see i or ii above). Cores, either homogeneous or heterogeneous, are harvested by centrifugation (3000 g 10 minutes) and resuspended in the original volume of phosphate buffered saline (pH 7.1). Mix equal parts of the harvested core aggregates and a washed suspension of the ‘coating organism’ (1×10^7-5×10^8 cells/mL).
(§2) In another version of the present invention, one would test a biocide with the aggregates described above in the following manner: Volumes (1-10 mL) of customized aggregate suspensions, formed as described earlier, are held in suitable containers (microtitre plate well, mini-centrifuge tubes, pyrex glass test-tubes) to which are added appropriate concentrations of the test biocide (volume 5-25% of suspension volume). After a chosen contact times have elapsed (1-30 minutes) samples are removed to a neutralizer solution appropriate to the chosen biocide containing the antagonistic sugar (50 mM) for the chosen lectin (See Table 1). The aggregates disperse into single cell suspension that upon which simple plate count estimates of the viable surviving cell number may be conducted. Control experiments are conducted on disaggregated populations created by resuspending the customized aggregates in the antagonistic sugar (50 mM) prior to the addition of biocide.
(§3) Binary lamellar aggregates were constructed for all combinations of the three test species. Core aggregate size was 50 microns diameter. Cores were coated with an equal number of the partner species. Each test species served as both core-aggregate and shell in these experiments. […] When the cells were aggregated prior to exposure to QUATs, then it became apparent that there was not only a protection afforded by aggregation but that the relative location of one species to the other affected the inactivation. Selected data is presented that compares inactivation of unordered (homogeneous) aggregates of two different species with ones where each of the partner organisms serves as either the core or shell to the other.

C. aquaticum = assay: as above; details: 1 mM QUAT
Experimental: as §1, §2, §3

Pseudomonas sp. 2881 [1] = assay: as above; details: 1 mM QUAT
Experimental: as §1, §2, §3

[2] = tested on: Corynebacterium aquaticum; assay: QUAT susceptibility of single-species aggregates (survivors); details: for No. of survivors (%) at 20 min: 1 mM QUAT; for No. of survivors after 20 minutes following treatment of 100 μm aggregate with 1 mM QUAT: 100 μm single species aggregate
Experimental: as §2
(§4) Single species (Pseudomonas sp. 2881, Aeromonas hydrophila and Corynebacterium aquaticum) aggregates of 10, 50 and 100 μm in size were constructed and treated with different concentrations of three simple quaternary ammonium compounds (n-alkyl dimethyl benzyl ammonium chloride where n=12, 14 or 16).

Aeromonas hydrophila = assay: as above; details: for No. of survivors (%) at 20 min: 1 mM QUAT; for No. of survivors after 20 minutes following treatment of 100 μm aggregate with 1 mM QUAT: 100 μm single species aggregate
Experimental: as §2, §4

Pseudomonas sp. 2881 [3] = assay: as above; details: for No. of survivors (%) at 20 min: 1 mM QUAT; for No. of survivors after 20 minutes following treatment of 100 μm aggregate with 1 mM QUAT: 100 μm single species aggregate
Experimental: as §2, §4

[4] = 100 μm A. hydrophila - C. aquaticum aggregate, Unordered mixture
[5] = 100 μm Pseudomonas sp. 2881 - A. hydrophila aggregate, Unordered mixture
[6] = 100 μm aggregate, A. hydrophila shell, C. aquaticum core
[7] = 100 μm aggregate, A. hydrophila shell, Pseudomonas sp. 2881 core
[8] = 100 μm aggregate, C. aquaticum shell, A. hydrophila core
[9] = 100 μm aggregate, Pseudomonas sp. 2881 shell, A. hydrophila core
[10] = 100 μm Pseudomonas sp. 2881 - C. aquaticum aggregate, Unordered mixture
[11] = 100 μm aggregate, C. aquaticum shell, Pseudomonas sp. 2881 core
[12] = 100 μm aggregate, Pseudomonas sp. 2881 shell, C. aquaticum core
[13] = single-species aggregate Approx. 10 μm
[14] = single-species aggregate Approx. 50 μm
[15] = single-species aggregate Approx. 100 μm

Substance: n-alkyl dimethyl benzyl ammonium chloride [C14 QUAT]
- % No. survivors after 20 minutes (A. hydrophila; [4]): 0.172%
- % No. survivors after 20 minutes (A. hydrophila; [5]): 0.112%
- % No. survivors after 20 minutes (A. hydrophila; [6]): 0.131%
- % No. survivors after 20 minutes (A. hydrophila; [7]): 0.0065%
- % No. survivors after 20 minutes (A. hydrophila; [8]): 0.365%
- % No. survivors after 20 minutes (A. hydrophila; [9]): 0.176%
- % No. survivors after 20 minutes (C. aquaticum; [4]): 0.0364%
- % No. survivors after 20 minutes (C. aquaticum; [10]): 0.0412%
- % No. survivors after 20 minutes (C. aquaticum; [6]): 0.0457%
- % No. survivors after 20 minutes (C. aquaticum; [8]): >0.001%
- % No. survivors after 20 minutes (C. aquaticum; [11]): >0.001%
- % No. survivors after 20 minutes (C. aquaticum; [12]): 0.0698%
- % No. survivors after 20 minutes (Pseudomonas sp. 2881 [1]; [5]): 0.241%
- % No. survivors after 20 minutes (Pseudomonas sp. 2881 [1]; [10]): 0.264%
- % No. survivors after 20 minutes (Pseudomonas sp. 2881 [1]; [7]): 0.319%
- % No. survivors after 20 minutes (Pseudomonas sp. 2881 [1]; [11]): 0.425%
- % No. survivors after 20 minutes (Pseudomonas sp. 2881 [1]; [9]): 0.147%
- % No. survivors after 20 minutes (Pseudomonas sp. 2881 [1]; [12]): 0.219%
- No. of survivors (%) at 20 min ([2]; No aggregate (free cells)): <0.00001%
- No. of survivors (%) at 20 min [2, 13]: 0.0002%
- No. of survivors (%) at 20 min [2, 14]: 0.0027%
- No. of survivors (%) at 20 min [2, 15]: 0.0829%
- No. of survivors after 20 minutes following treatment of 100 μm aggregate with 1 mM QUAT [2]: 0.083
- No. of survivors (%) at 20 min (Aeromonas hydrophila; No aggregate (free cells)): <0.00001%
- No. of survivors (%) at 20 min (Aeromonas hydrophila; [13]): 0.0041%
- No. of survivors (%) at 20 min (Aeromonas hydrophila; [14]): 0.0282%
- No. of survivors (%) at 20 min (Aeromonas hydrophila; [15]): 0.4197%
- No. of survivors after 20 minutes following treatment of 100 μm aggregate with 1 mM QUAT (Aeromonas hydrophila): 0.420
- No. of survivors (%) at 20 min (Pseudomonas sp. 2881 [3]; No aggregate (free cells)): 0.001%
- No. of survivors (%) at 20 min (Pseudomonas sp. 2881 [3]; [13]): 0.021%
- No. of survivors (%) at 20 min (Pseudomonas sp. 2881 [3]; [14]): 0.0598%
- No. of survivors (%) at 20 min (Pseudomonas sp. 2881 [3]; [15]): 0.5942%
- No. of survivors after 20 minutes following treatment of 100 μm aggregate with 1 mM QUAT (Pseudomonas sp. 2881 [3]): 0.594

Substance: n-alkyl dimethyl benzyl ammonium chloride [C16 QUAT]
- No. of survivors after 20 minutes following treatment of 100 μm aggregate with 1 mM QUAT [2]: 0.266
- No. of survivors after 20 minutes following treatment of 100 μm aggregate with 1 mM QUAT (Aeromonas hydrophila): 0.594
- No. of survivors after 20 minutes following treatment of 100 μm aggregate with 1 mM QUAT (Pseudomonas sp. 2881 [3]): 0.724

Substance: n-alkyl dimethyl benzyl ammonium chloride [C12 QUAT]
- No. of survivors after 20 minutes following treatment of 100 μm aggregate with 1 mM QUAT [2]: 0.240
- No. of survivors after 20 minutes following treatment of 100 μm aggregate with 1 mM QUAT (Aeromonas hydrophila): 0.635
- No. of survivors after 20 minutes following treatment of 100 μm aggregate with 1 mM QUAT (Pseudomonas sp. 2881 [3]): 0.711
